Source: patent publication US7875422B2, “Viral drug susceptibility testing” (Cavidi AB, priority 2001, dated 2011)
pIC50: −log10 of the molar value. Read-outs that look alike come from different tables or passages of the source.

Legend:
[1] = system: HIV 1 virus with the corresponding RT modification; set-up: key: RS = the mutations gives re-sensitation of resistant virus; S = sensitive; L = Low level resistance; I = Intermediate resistance; H = High level resistance; details: phenotype data from literature, cited from earlier work
[2] = system: HIV 1 virus with the corresponding RT modification; set-up: key: S = sensitive; L = Low level resistance (2–10 times increase in inhibitory dose); I = Intermediate resistance (10–100 times increase); H = High level resistance (>100 times increase); details: dT analogues, phenotype data from literature, cited from earlier work
[3] = system: recombinant HIV 1 RT M41L/T69S-SS/L210W/R211K/L214F/T215Y; details: Recombinant RT control T69S→SS; compared to wild type control RT
Description: (§2) Regrettably an efficient phosphorolysis reaction is promptly reflected by a decrease in polymerization velocity and as a consequence also a decrease in detection sensitivity. Therfore this assay require more RT activity, compared to the corresponding assay for the NNRTIs.

[4] = molecular target: recombinant HIV 1 RT M41L/T69S-SS/L210W/R211K/L214F/T215Y (Human immunodeficiency virus type 1 group M subtype B, UniProt P04585, INS655SS/L797W/L801F/M628L/R798K/T656S/T802Y); test: biochemical
Description: as §2

[5] = molecular target: recombinant HIV 1 RT T215Y (Human immunodeficiency virus type 1 group M subtype B, UniProt P04585, T802Y); test: RT inhibition assay for dT analogues (Chain-termination reaction mixture)
Description: as §2

[6] = molecular target: recombinant HIV 1 RT wild type HxB2 (Human immunodeficiency virus type 1 group M subtype B, UniProt P04585); test: as above
[7] = molecular target: T1, recombinant HIV 1 RT wild type BH10 (Human immunodeficiency virus type 1 group M subtype B, UniProt P03366); test: as above; details: for fold increase of IC50: Recombinant RT control wild type RT (Table 4)
[8] = molecular target: T2, HIV RT recovered from patient plasma (Human immunodeficiency virus type 1, UniProt P03366); test: Susceptibility to AZT-TP and d4T-TP using plasma derived RTs (Chain-termination reaction mixture); details: 5 fg/well
Description: (§3) • 1) Label the 4.5 ml plastic tubes to be used. Place them in a Nalgene box. Add 1 ml of sample (e.g. EDTA plasma from HIV infected individuals) to each labelled tube. Add 100 μl of a 66 mM solution of 5,5′-dithiobis-(2-nitrobenzoic acid) in buffered water, vortex and incubate the samples for one hour at room temperature.
(§4) The activity of the free plasma enzymes is destroyed during this procedure while the enzymes contained within the virions remain intact. The virions can then be purified from 5,5′-dithiobis-(2-nitrobenzoic acid), enzyme activity blocking antibodies and other substances that may interfere with quantification of viral RT by several separation procedures. The protocol below is based on the use of Fractogel® EMD TMAE Hicap gel. • 2) Suspend the separation gel carefully and transfer 1500 μl gel slurry to each sample pretreatment tube. • 3) Incubate the samples with the gel slurry for 90 minutes at room temperature with the tubes lying down horizontally on an orbital shaker. • 4) Label the desired amount of 10 ml plastic mini columns to identify the samples being analyzed. Mount the columns in a column washing device i.e. a Supelco Visiprep solid phase extraction vacuum manifold. Transfer the contents in the binding tubes to their corresponding columns. Before transfer vortex the tube briefly to evenly distribute the gel. • 5) When all the columns are filled, apply the vacuum and suck the gels dry. Turn off the vacuum and start the washing by filling each column with 9 ml buffer A. When all columns have been filled, apply the vacuum and suck the gels dry. • 6) Repeat step 5 three more times, giving a total of four washes. Suck the gels dry after each wash. After sucking the gels dry after the fourth wash, turn off the vacuum and proceed to step 7. • The washing step removes unbound RT blocking antibodies and 5,5′-dithiobis-(2-nitrobenzoic acid) from the system. • 7) Add to all dry gels 9 ml of conditioning buffer (B). After one minute apply vacuum and suck the gels dry. • 8) Repeat step 7. Before turning off the vacuum check that all conditioning buffer (B) has been removed from all gels. • 9) Lift off the upper part of the column wash device. Mount the tube holder with the labelled tubes into a clean container. Refit the upper part of the device. Control that the small tubings from each column go down in their corresponding tubes. • 10) Add 600 μl lysis buffer (C) to each column. Let the buffer stand in the column for five minutes. Then apply the vacuum slowly and suck the gels dry. This will in each tube give approximately 600 μl of virus lysate from the connected gel.
(§5) The RT activity recovered in the lysates from step 10 are essentially free from RT blocking antibodies, drugs and cellular polymerase activity, and can be quantified with a sensitive RT activity assay, i.e. the Cavidi HS-kit Lenti RT, which is based on the method described by Ekstrand et al [7]. 25 μl lysate obtained according to the current protocol is sufficient for determination of the RT activity in the sample. The Remaining 575 μl sample should be frozen at −70° C. or below for later use in the drug sensitivity test.

[9] = molecular target: HIV RT recovered from patient plasma (UniProt P04585, K657R/L797S, species not given); test: as above; details: plasma RT of patient code 1030 (K70R, L210S); 5 fg/well
[10] = molecular target: HIV RT recovered from patient plasma (UniProt P04585, K690N/V695H, species not given); test: as above; details: plasma RT of patient code 2098; 5 fg/well
[11] = molecular target: HIV RT recovered from patient plasma (UniProt P04585, M628L/E631D/D654N/A685G/V705I/Y768C/L797W/T802Y, species not given); test: as above; details: plasma RT of patient code 656 (resensitising 181C); 5 fg/well
[12] = molecular target: HIV RT recovered from patient plasma (UniProt P04585, T656N/L687I/K690N, species not given); test: as above; details: plasma RT of patient code 622; 5 fg/well
[13] = system: HIV RT recovered from patient plasma; test: as above; details: compared to wild type control RT
Description: as §3, §4, §5

[14] = system: HIV 1 virus with the corresponding RT modification; set-up: key: S = sensitive; L = Low level resistance (2–10 times increase in inhibitory dose); I = Intermediate resistance (10–100 times increase); H = High level resistance (>100 times increase); details: phenotype data from literature, cited from earlier work
[15] = molecular target: T3, recombinant HIV 1 RT wild type (Human immunodeficiency virus type 1 group M subtype B, UniProt P04585); test: Influence of the amount of RT used in the drug susceptibility tests (AZT-TP); type: biochemical
T3 construct: This variation was maximal for wild type RT; made in house

[16] = molecular target: recombinant HIV 1 RT K103N (Human immunodeficiency virus type 1 group M subtype B, UniProt P03366, K702N); test: RT inhibition assay for non-nucleoside inhibitors (modified HS Lenti RT assay, RT Reaction mixture); type: biochemical; details: 1.7 fg/well, 19 hours, read-out: IC50 of indicated inhibitor in RT assay
Description: (§1) As template for the mutations was used the pETRT expression vector, which was constructed from the BH10 isolate.

[17] = molecular target: recombinant HIV 1 RT L100I (Human immunodeficiency virus type 1 group M subtype B, UniProt P03366, L699I); test: as above; type: biochemical; details: 1.7 fg/well, 19 hours, read-out: IC50 of indicated inhibitor in RT assay
Description: as §1

[18] = molecular target: recombinant HIV 1 RT L100I/K103N (Human immunodeficiency virus type 1 group M subtype B, UniProt P03366, K702N/L699I); test: as above; type: biochemical; details: 1.7 fg/well, 19 hours, read-out: IC50 of indicated inhibitor in RT assay
Description: as §1

[19] = molecular target: T1, recombinant HIV 1 RT wild type BH10; test: as above; type: biochemical; details: 1.7 fg/well, 19 hours, read-out: IC50 of indicated inhibitor in RT assay
Description: as §1

[20] = molecular target: T2, HIV RT recovered from patient plasma; test: Susceptibility to NNRTIs using plasma derived RTs; type: biochemical, HIV-1; details: 1.7 fg/well
Description: Place them in a Nalgene box.
Suck the gels dry after each wash. […] Refit the upper part of the device.

[21] = virus with M41L/T69S-SS/L210W/R211K/L214F/T215Y
[22] = IC50, plasma RT of patient code 48
[23] = IC50, plasma RT of patient code 160
[24] = IC50, plasma RT of patient code 181
[25] = IC50, plasma RT of patient code 662
[26] = IC50, plasma RT of patient code 807
[27] = IC50, plasma RT of patient code 3507

Cc1cn([C@H]2C[C@H](N=[N+]=[N-])[C@@H](CO)O2)c(=O)[nH]c1=O [AZT]
Sensitivity of the corrsponding virus [1, 21]: H
Sensitivity of the corrsponding virus ([1]; virus with T215Y): I
Sensitivity of the corrsponding virus ([2]; wild type HXB2): S
Sensitivity of the corrsponding virus ([2]; wildtype BH 10): S

Cc1cn([C@H]2C=C[C@@H](COP(=O)(O)OP(=O)(O)OP(=O)(O)O)O2)c(=O)[nH]c1=O [d4T-TP, 2′,3′-didehydro-3′-deoxythymidine triphosphate]
fold increase of IC50 [3]: 15 fold
pIC50 [4]: 6.31
pIC50 [5]: 6.82
pIC50 [6]: 7.30
pIC50 [7]: 7.48
fold increase of IC50 [7]: 1.0 fold
pIC50 [8, 22]: 7.07
pIC50 [8, 23]: 7.37
pIC50 [8, 24]: 7.31
pIC50 [8, 25]: 7.19
pIC50 [8, 26]: 7.15
pIC50 [8, 27]: 7.70
pIC50 [9]: 5.96
pIC50 [10]: 7.32
pIC50 [11]: 6.77
pIC50 [12]: 7.55
fold increase of IC50 ([13]; patient code 48): 2.6 fold
fold increase of IC50 ([13]; patient code 160): 1.3 fold
fold increase of IC50 ([13]; patient code 181): 1.5 fold
fold increase of IC50 ([13]; patient code 393): 12.7 fold
fold increase of IC50 ([13]; patient code 622): 0.8 fold
fold increase of IC50 ([13]; patient code 656): 5.2 fold
fold increase of IC50 ([13]; patient code 662): 2.0 fold
fold increase of IC50 ([13]; patient code 807): 2.7 fold
fold increase of IC50 ([13]; patient code 1030): 33 fold
fold increase of IC50 ([13]; patient code 1320): 19.6 fold
fold increase of IC50 ([13]; patient code 2098): 1.5 fold
fold increase of IC50 ([13]; patient code 3507): 0.6 fold

Cc1ccnc2c1NC(=O)c1cccnc1N2C1CC1 [Nevirapin, 11-cyclopropyl-5,11-dihydro-4-methyl-6H-dipyrido[3,2-b:2′,3′-f][1,4]diazepin-6-one]
Sensitivity of the corresponding virus ([14]; virus with K103N): H (H = High level resistance (>100 times increase))
Sensitivity of the corresponding virus ([14]; virus with L100I/K103N): H (H = High level resistance (>100 times increase))
Sensitivity of the corresponding virus ([14]; virus with L100I): L (L = Low level resistance (2–10 times increase in inhibitory dose))
Sensitivity of the corresponding virus ([14]; wild type BH10, NNRTIs): S
Sensitivity of the corresponding virus ([14]; wild type HxB2, NNRTIs): S

Cc1cn([C@H]2C=C[C@@H](CO)O2)c(=O)[nH]c1=O [d4T]
Sensitivity of the corrsponding virus [1, 21]: H
Sensitivity of the corrsponding virus ([1]; virus with T215Y): L
Sensitivity of the corrsponding virus ([2]; wild type HXB2): S
Sensitivity of the corrsponding virus ([2]; wildtype BH 10): S

Cc1cn(C2CC(N=[N+]=[N-])C(COP(=O)(O)OP(=O)(O)OP(=O)(O)O)O2)c(=O)[nH]c1=O (stereo not shown) [AZT-TP, 3′-azido-2′,3′-deoxythymidine triphosphate]
pIC50 ([15]; RT amount 2 fg/well): 6.89
pIC50 ([15]; RT amount 162 fg/well): 6.66
fold increase of IC50 [3]: 25 fold
pIC50 [4]: 5.40
pIC50 [5]: 6.16
pIC50 [6]: 6.72
pIC50 [7]: 6.80
fold increase of IC50 [7]: 1.0 fold
pIC50 [8, 22]: 6.33
pIC50 [8, 23]: 6.57
pIC50 [8, 24]: 6.30
pIC50 [8, 25]: 6.30
pIC50 [8, 26]: 6.30
pIC50 [8, 27]: 6.89
pIC50 [9]: 5.49
pIC50 [10]: 6.46
pIC50 [11]: 5.90
pIC50 [12]: 6.64
fold increase of IC50 ([13]; patient code 48): 2.9 fold
fold increase of IC50 ([13]; patient code 160): 1.7 fold
fold increase of IC50 ([13]; patient code 181): 3.1 fold
fold increase of IC50 ([13]; patient code 393): 20 fold
fold increase of IC50 ([13]; patient code 622): 1.4 fold
fold increase of IC50 ([13]; patient code 656): 7.8 fold
fold increase of IC50 ([13]; patient code 662): 3.1 fold
fold increase of IC50 ([13]; patient code 807): 3.1 fold
fold increase of IC50 ([13]; patient code 1030): 20 fold
fold increase of IC50 ([13]; patient code 1144): 3.5 fold
fold increase of IC50 ([13]; patient code 1320): 8.3 fold
fold increase of IC50 ([13]; patient code 2098): 2.2 fold
fold increase of IC50 ([13]; patient code 3507): 0.8 fold

CC(C)Nc1cccnc1N1CCN(C(=O)c2cc3cc(NS(C)(=O)=O)ccc3[nH]2)CC1 [Delaviridine, 1-(5-methanesulphonamido-1H-indol-2-yl-carbonyl)-4-[3-(1-methylethyl-amino)pyridinyl]piperazine monomethane sulphonate]
pIC50 [16]: 5.52
pIC50 [17]: 5.02
pIC50 [18]: < 4.00
pIC50 [19]: 6.30
pIC50 ([20]; IC50, plasma RT of patient code 1177): 5.34
pIC50 ([20]; IC50, plasma RT of patient code 1412): 5.44
pIC50 ([20]; IC50, plasma RT of patient code 1424): 5.09
pIC50 ([20]; IC50, plasma RT of patient code 1572): 5.02
pIC50 ([20]; IC50, plasma RT of patient code 1639): 4.90
pIC50 ([20]; IC50, plasma RT of patient code 1885): 5.05
pIC50 ([20]; plasma RT of patient code 3980 (V179T/A/I)): 5.12

O=C1Nc2ccc(Cl)cc2C(C#CC2CC2)(C(F)(F)F)O1 (single isomer, unassigned; (-)) [Efavirienz, (−)6-chloro-4-cyclopropylethynyl-4-trifluoromethyl-1,4-dihydro-2H-3,1-benzoxazin-2-one]
Sensitivity of the corresponding virus ([14]; virus with K103N): H (H = High level resistance (>100 times increase))
Sensitivity of the corresponding virus ([14]; virus with L100I/K103N): H (H = High level resistance (>100 times increase))
Sensitivity of the corresponding virus ([14]; virus with L100I): I (I = Intermediate resistance (10–100 times increase))
Sensitivity of the corresponding virus ([14]; wild type BH10, NNRTIs): S
Sensitivity of the corresponding virus ([14]; wild type HxB2, NNRTIs): S
